Tested on: Dermatophyten und Schimmelpilze; Hefen
Assay: Antimycotic in-vitro activity, serial dilution test
Assay type: cell-based
Conditions: 28°C, 24 h for yeasts, 96 h for dermatophytes and moulds, compared with the prior-art compound (A)
Experimental: Die in-vitro-Prüfung wurde im Reihenverdünnungstest mit Keiminokula von durchschnittlich […] Substrat durchgeführt. Als Nährmedium dienten • a) für Dermatophyten und Schimmelpilze: Sabourand's milieu d'epresive • b) für Hefen: Isotonic Sensitest-Broth von Oxid.
Die Bebrütungstemperatur betrug 28°C; Bebrütungsdauer war 24 Stunden bei Hefen und 96 Stunden bei Dermatophyten und Schimmelpilzen.

| Molecule | antimykotische Wirkung |
| --- | --- |
| CCCC(C)C=C(C(=O)c1ccc(Cl)cc1Cl)n1ccnc1 (centres unmarked) [Beispiel 7] | bessere antimykotische Wirkung als die aus dem Stand der Technik bekannte Verbindung (A) |
| CCC(C=C(C(=O)c1ccc(Cl)cc1Cl)n1ccnc1)CC [Beispiel 5] | bessere antimykotische Wirkung als die aus dem Stand der Technik bekannte Verbindung (A) |
| 1-(2,4-Dichlorphenyl)-2-Eimidazol-1-yl)-3-(methylcyclohexen-3-yl)-2-propen-l-on [Beispiel 1] | bessere antimykotische Wirkung als die aus dem Stand der Technik bekannte Verbindung (A) |
| CCC(C)C=C(C(=O)c1ccc(Cl)cc1Cl)n1ccnc1 (centres unmarked) [Beispiel 6] | bessere antimykotische Wirkung als die aus dem Stand der Technik bekannte Verbindung (A) |
| CCCCC(C=C(C(=O)c1ccc(Cl)cc1Cl)n1ccnc1)CC (centres unmarked) [Beispiel 9] | bessere antimykotische Wirkung als die aus dem Stand der Technik bekannte Verbindung (A) |

— patent EP0048827A1, “Substituted 2,4-dichlorophenyl-imidazolyl-vinyl ketones, processes for their preparation and antimicrobial agents containing these compounds” (BAYER AG, priority 1980, dated 1982)
